# Assay results published in article PMC2810227, “3-O-Methylfunicone, a Selective Inhibitor of Mammalian Y-Family DNA Polymerases from an Australian Sea Salt Fungal Strain” (Marine Drugs, 2009).
# Assays:
# human pol η = molecular target: T1, human pol η (Homo sapiens, UniProt Q9Y253); assay: DNA polymerase assay, pol η; type: biochemical
# T1 construct: A truncated form of human pol η (residues 1–511); His6 (C); made in house; host or cells: E. coli
# From the text: (§1) Pol α was purified from calf thymus by immuno-affinity column chromatography, as described by Tamai et al.. Recombinant rat pol β was purified from E. coli JMpβ5, as described by Date et al.. The human pol γ catalytic gene was cloned into pFastBac. Histidine-tagged enzyme was expressed using the BAC-TO-BAC HT Baculovirus Expression System according to the supplier’s manual (Life Technologies, MD, USA) and purified using ProBoundresin (Invitrogen Japan, Tokyo, Japan). Human pols δ and ɛ were purified by nuclear fractionation of human peripheral blood cancer cells (Molt-4) using the second subunit of pols δ and ɛ-conjugated affinity column chromatography, respectively. A truncated form of human pol η (residues 1–511) tagged with His6 at its C-terminal was expressed in E. coli cells and purified as described by Kusumoto et al.. A recombinant mouse pol ι tagged with His6 at its C-terminal was expressed and purified by Ni-NTA column chromatography as described elsewhere (Masutani et al., in preparation). […]
# (§2) The compounds were dissolved in distilled dimethyl sulfoxide (DMSO) at various concentrations and sonicated for 30 sec. […] Activity without the inhibitor was considered 100%, and the remaining activity at each concentration of the inhibitor was determined relative to this value. […]
# mouse pol ι = molecular target: T2, mouse pol ι (Mus musculus, UniProt Q6R3M4); assay: DNA polymerase assay, pol ι; type: biochemical
# T2 construct: His6 (C); made in house
# T2 sequence (Q6R3M4 whole entry): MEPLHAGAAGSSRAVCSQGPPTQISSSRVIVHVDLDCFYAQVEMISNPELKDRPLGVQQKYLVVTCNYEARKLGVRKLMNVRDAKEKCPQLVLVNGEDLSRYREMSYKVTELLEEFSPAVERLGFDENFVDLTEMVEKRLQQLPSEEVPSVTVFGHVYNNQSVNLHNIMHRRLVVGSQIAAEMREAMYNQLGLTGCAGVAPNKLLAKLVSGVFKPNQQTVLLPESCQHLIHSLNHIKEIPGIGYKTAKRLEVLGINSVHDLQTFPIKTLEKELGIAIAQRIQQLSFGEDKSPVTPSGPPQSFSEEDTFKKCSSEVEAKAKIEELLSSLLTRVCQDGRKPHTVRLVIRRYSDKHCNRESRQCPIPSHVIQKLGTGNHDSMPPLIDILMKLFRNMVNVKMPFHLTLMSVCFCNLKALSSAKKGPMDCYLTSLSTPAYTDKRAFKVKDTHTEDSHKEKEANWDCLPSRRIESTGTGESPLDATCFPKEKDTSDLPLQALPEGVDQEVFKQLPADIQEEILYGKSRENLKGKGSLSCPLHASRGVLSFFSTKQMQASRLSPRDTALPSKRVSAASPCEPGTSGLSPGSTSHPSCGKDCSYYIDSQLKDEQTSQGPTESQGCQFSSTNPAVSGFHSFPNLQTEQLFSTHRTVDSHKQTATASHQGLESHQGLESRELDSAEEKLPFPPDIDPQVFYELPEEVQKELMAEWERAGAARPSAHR
# From the text: as §1, §2
# human pol γ = molecular target: T3, human pol γ (Homo sapiens, UniProt P54098); assay: DNA polymerase assay, pol γ; type: biochemical; details: 100 μM
# T3 construct: His; made in house
# From the text: as §1, §2
# pol α from calf thymus = molecular target: T4, pol α from calf thymus (Bos taurus, UniProt A0AAA9TD94); assay: DNA polymerase assay, pol α; type: biochemical; details: 100 μM
# T4 construct: Pol α was purified from calf thymus; from tissue; host or cells: calf thymus
# From the text: as §1, §2
# human pol ɛ = molecular target: T5, human pol ɛ (Homo sapiens, UniProt Q07864); assay: DNA polymerase assay, pol ɛ; type: biochemical; details: 100 μM
# T5 construct: purified by nuclear fractionation of human peripheral blood cancer cells (Molt-4); endogenous in cells; host or cells: Molt-4
# T5 sequence (Q07864 whole entry): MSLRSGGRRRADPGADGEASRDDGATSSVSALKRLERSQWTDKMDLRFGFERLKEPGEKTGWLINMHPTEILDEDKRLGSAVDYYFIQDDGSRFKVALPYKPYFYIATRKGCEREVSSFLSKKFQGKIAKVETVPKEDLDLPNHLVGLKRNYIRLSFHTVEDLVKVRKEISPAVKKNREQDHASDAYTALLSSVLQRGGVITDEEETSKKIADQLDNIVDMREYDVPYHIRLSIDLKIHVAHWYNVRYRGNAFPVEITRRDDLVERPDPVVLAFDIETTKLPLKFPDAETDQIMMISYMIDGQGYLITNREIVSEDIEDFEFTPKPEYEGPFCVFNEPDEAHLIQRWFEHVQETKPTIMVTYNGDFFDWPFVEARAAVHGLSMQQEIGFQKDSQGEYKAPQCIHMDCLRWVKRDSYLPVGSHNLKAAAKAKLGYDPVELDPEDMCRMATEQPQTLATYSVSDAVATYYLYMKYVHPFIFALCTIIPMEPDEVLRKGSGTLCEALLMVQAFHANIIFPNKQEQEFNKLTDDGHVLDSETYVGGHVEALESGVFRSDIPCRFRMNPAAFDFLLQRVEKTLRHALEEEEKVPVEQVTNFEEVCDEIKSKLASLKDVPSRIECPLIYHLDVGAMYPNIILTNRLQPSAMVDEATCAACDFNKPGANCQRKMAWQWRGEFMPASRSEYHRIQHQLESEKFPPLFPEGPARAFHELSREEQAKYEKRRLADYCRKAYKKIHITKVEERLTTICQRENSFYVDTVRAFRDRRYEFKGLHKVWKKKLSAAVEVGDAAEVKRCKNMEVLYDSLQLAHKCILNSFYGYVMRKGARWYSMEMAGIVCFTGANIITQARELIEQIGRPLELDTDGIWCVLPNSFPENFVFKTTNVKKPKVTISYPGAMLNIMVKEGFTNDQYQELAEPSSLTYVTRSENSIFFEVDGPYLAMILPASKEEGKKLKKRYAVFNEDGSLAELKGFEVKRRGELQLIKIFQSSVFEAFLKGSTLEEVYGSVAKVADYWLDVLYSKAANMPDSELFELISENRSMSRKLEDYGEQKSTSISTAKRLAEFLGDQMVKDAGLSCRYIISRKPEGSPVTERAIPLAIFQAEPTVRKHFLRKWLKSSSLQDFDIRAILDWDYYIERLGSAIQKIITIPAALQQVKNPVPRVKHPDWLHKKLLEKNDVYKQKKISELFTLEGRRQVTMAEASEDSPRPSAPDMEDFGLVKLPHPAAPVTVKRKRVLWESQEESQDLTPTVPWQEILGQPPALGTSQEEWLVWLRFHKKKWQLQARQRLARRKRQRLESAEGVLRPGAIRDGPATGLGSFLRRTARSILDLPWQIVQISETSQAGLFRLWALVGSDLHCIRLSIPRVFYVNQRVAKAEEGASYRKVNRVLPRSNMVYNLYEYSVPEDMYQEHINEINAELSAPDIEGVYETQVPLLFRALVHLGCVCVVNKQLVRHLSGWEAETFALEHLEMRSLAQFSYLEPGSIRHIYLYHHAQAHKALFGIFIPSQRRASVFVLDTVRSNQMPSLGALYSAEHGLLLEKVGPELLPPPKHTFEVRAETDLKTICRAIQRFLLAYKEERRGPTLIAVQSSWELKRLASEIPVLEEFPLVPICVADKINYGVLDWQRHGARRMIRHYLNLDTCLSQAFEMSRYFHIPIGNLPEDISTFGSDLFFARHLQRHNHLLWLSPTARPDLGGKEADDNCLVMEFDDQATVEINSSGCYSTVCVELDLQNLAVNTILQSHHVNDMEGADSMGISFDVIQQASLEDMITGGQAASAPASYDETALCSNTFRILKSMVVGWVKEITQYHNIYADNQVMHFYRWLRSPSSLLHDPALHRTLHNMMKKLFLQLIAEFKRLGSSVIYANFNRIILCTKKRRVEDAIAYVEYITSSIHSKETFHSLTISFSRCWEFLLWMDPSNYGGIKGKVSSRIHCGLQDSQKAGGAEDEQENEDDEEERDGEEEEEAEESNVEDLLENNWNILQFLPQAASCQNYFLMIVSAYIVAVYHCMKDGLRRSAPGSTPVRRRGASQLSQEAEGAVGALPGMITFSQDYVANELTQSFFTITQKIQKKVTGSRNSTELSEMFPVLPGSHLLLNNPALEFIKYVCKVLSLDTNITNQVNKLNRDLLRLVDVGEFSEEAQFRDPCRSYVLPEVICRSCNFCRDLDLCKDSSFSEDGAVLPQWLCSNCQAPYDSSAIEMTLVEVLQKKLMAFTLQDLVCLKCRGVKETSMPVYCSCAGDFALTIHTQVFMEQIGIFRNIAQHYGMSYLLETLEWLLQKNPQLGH
# From the text: as §1, §2
# human pol λ = molecular target: T6, human pol λ (Homo sapiens, UniProt Q9UGP5); assay: DNA polymerase assay, pol λ; type: biochemical; details: 100 μM
# T6 construct: His; made in house
# From the text: as §1, §2
# fruit fly pol δ = molecular target: T7, fruit fly pol δ (Drosophila melanogaster, UniProt P54358); assay: DNA polymerase assay, insect pol δ; type: biochemical; details: 100 μM
# T7 construct: purified from early embryos of Drosophila melanogaster; from tissue; host or cells: early embryos of Drosophila melanogaster
# [1] = molecular target: T8, Klenow fragment of E. coli pol I (Escherichia coli, UniProt P00582); assay: DNA polymerase assay, Klenow fragment; type: biochemical; details: 100 μM
# T8 construct: the Klenow fragment of pol I from E. coli; purchased Worthington Biochemical Corp. (Freehold, NJ, USA)
# From the text: as §1, §2
# T4 pol = molecular target: T9, T4 pol (Enterobacteria phage T4, UniProt P04415); assay: DNA polymerase assay, T4 pol; type: biochemical; details: 100 μM
# T9 construct: purchased Takara Bio (Tokyo, Japan)
# From the text: as §1, §2
# Taq pol = molecular target: T10, Taq pol (Thermus aquaticus, UniProt P19821); assay: DNA polymerase assay, Taq pol; type: biochemical; details: 100 μM; 74 °C
# T10 construct: purchased Takara Bio (Tokyo, Japan)
# From the text: as §1, §2
# calf primase of pol α = assay: Primase assay; type: biochemical; details: 100 μM
# Protocol: (§3) The activities of calf primase of pol α, human telomerase, T7 RNA polymerase, mouse IMP dehydrogenase, human DNA topoisomerases I and II, T4 polynucleotide kinase and bovine DNase I were measured in standard assays according to the manufacturer’s specifications, as described by Tamiya-Koizumi et al., Oda et al., Nakayama et al., Mizushina et al., Ishimaru et al., Soltis et al. and Lu et al., respectively.
# [2] = molecular target: mouse inosine 5′-monophosphate (IMP) dehydrogenase (type II) (Mus musculus, UniProt P24547); assay: IMP dehydrogenase assay; type: biochemical; details: 100 μM
# mouse inosine 5′-monophosphate (IMP) dehydrogenase (type II), sequence (P24547 whole entry): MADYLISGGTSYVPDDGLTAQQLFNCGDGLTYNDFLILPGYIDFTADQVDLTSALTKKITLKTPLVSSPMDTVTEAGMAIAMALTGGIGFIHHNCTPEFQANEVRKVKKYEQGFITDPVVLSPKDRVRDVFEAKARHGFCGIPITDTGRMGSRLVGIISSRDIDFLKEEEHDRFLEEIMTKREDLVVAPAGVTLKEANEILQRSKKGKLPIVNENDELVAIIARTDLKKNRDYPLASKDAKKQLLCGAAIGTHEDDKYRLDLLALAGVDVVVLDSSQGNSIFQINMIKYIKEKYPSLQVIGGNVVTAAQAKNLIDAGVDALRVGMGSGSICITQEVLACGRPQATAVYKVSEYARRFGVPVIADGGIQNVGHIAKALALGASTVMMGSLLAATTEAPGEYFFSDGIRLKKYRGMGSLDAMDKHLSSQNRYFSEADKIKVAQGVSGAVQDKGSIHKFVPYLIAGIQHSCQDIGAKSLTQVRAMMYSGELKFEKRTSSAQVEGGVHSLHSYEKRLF
# Protocol: as §3
# human topoisomerase I = molecular target: T11, human topoisomerase I (Homo sapiens, UniProt P11387); assay: DNA topoisomerase I assay; type: biochemical; details: 100 μM
# T11 construct: Purified human placenta DNA topoisomerases I and II were purchased from TopoGen, Inc; purchased TopoGen, Inc. (Columbus, OH, USA); host or cells: human placenta (tissue-purified)
# T11 sequence (P11387 whole entry): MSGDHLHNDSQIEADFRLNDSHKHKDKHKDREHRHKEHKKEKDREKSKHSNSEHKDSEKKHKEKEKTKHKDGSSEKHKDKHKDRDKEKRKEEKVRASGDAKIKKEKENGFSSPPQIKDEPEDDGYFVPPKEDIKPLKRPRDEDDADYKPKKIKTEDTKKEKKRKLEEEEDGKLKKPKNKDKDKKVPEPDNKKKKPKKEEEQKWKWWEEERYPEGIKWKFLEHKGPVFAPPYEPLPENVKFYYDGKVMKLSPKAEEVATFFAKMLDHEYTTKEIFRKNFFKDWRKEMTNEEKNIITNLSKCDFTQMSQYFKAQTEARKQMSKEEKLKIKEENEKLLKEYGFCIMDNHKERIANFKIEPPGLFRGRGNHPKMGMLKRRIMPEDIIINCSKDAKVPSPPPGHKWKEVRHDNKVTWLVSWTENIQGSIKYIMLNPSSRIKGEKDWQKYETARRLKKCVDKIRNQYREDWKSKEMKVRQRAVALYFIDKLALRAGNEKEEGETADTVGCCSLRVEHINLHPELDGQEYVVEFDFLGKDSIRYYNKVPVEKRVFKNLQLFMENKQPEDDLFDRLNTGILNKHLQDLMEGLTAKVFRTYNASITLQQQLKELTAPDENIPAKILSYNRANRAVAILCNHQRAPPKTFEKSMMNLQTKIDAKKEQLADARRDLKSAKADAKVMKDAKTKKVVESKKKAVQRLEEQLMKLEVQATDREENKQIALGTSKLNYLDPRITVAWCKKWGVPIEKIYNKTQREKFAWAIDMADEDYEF
# From the text: as §1, with “al..” for “al.. A recombinant mouse pol ι tagged with His6 at its C-terminal was expressed and purified by Ni-NTA column chromatography as described elsewhere (Masutani et al., in preparation).”
# as §3
# [3] = test system: HUVEC (human umbilical vein endothelial cells); assay: Proliferation and growth of normal cells, HUVEC; type: cell-based; details: data not shown
# T1 sequence (Q9Y253 1-511): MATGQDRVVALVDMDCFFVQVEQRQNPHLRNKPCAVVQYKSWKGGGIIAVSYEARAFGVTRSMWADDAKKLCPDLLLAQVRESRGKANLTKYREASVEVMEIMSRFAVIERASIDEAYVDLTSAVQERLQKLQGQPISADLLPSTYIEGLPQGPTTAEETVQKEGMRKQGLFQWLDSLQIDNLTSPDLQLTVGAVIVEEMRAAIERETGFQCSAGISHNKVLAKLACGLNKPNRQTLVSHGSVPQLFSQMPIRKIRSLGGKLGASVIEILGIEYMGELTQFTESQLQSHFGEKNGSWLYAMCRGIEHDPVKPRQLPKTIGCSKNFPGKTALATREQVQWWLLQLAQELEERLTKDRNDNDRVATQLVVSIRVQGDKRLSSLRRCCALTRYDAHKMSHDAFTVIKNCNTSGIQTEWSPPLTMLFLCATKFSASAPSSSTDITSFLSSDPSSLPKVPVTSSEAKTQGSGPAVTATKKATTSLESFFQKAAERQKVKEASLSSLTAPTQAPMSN
smiles,measurement,setting,value
"C/C=C/c1occ(C(=O)c2c(OC)cc(OC)cc2C(=O)OC)c(=O)c1OC [compound 1, 3-O-methylfunicone]",effect on pol η activity,human pol η; 100 μM,selectively inhibit
same,IC50,"human pol η; poly(dA)/oligo(dT)18 and dTTP, 0.05 units enzyme, read-out: 50% inhibition of pol η (IC50)",50.1 µM
same,effect on pol ι activity,mouse pol ι; 100 μM,selectively inhibit
same,IC50,"mouse pol ι; poly(dA)/oligo(dT)18 and dTTP, 0.05 units enzyme, read-out: 50% inhibition of pol ι (IC50)",34.3 µM
same,effect on pol γ activity,human pol γ,hardly influenced
same,effect on pol α activity,pol α from calf thymus,hardly influenced
same,effect on pol ɛ activity,human pol ɛ,hardly influenced
same,effect on pol λ activity,human pol λ,hardly influenced
same,effect on fruit fly pol δ activity,fruit fly pol δ,hardly influenced
same,effect on Klenow fragment of E. coli pol I activity,[1],no effect
same,effect on T4 pol activity,T4 pol,no effect
same,effect on Taq pol activity,Taq pol,no effect
same,effect on calf primase of pol α activity,calf primase of pol α,did not influence
same,effect on mouse IMP dehydrogenase (type II) activity,[2],did not influence
same,effect on human topoisomerase I activity,human topoisomerase I,did not influence
same,effect on cell proliferation and growth,[3],did not influence
